In patent US11827665B2, “Process for the manufacture of (2S,3S,4S,5R,6S)-3,4,5-trihydroxy-6-(((4AR,10AR)-7-hydroxy-1-propyl-1,2,3,4,4A,5,10,10A-octahydrobenzo[g]quinolin-6-yl)oxy)tetrahydro-2H-pyran-2-carboxylic acid” (H. Lundbeck A/S, priority 2019, dated 2023):

Tests used:
rat hepatocytes [1] = experiment: Incubation with rat hepatocytes; assay type: in vitro ADME
Method: (§1) The cell concentration at incubation was 1×10^6 viable cells/mL. The incubations were performed in glass tubes at 37° C. with a total incubation volume of 3.5 mL and with duplicate incubations for each test item. The 3.5 mL of hepatocyte suspension was equilibrated for 10 minutes in a water bath set to 37° C. where after the incubations were initiated by adding 3.5 μL of a stock solution of the test item in DMSO (Dimethyl sulfoxide) and gently inverting the tubes. The final solvent concentration in the incubations was 0.1% DMSO. Samples of 600 μL were withdrawn from the incubations at the pre-determined time points of 0.25, 5, 15, 30 and 60 minutes after ensuring homogeneity of hepatocyte suspensions. The withdrawn volume was added to 1 mL Nunc cryotubes on wet ice containing 60 μL of ice-cold ascorbic acid (100 mg/mL) and 30 μL of ice cold 100 mM saccharic acid 1.4-lactone in 0.5 M citric acid. The tubes were mixed and 35 μL of a solution of ice cold 20% formic acid was added. The tubes were mixed thoroughly and stored at −80° C. awaiting analysis.

human hepatocytes [2] = experiment: Incubation with human hepatocytes; assay type: in vitro ADME
Method: as §1

[3] = system: Parkinson's Disease animal models; conditions: WO 2010/097092; cited from earlier work
[4] = PK experiments in rats: plasma compound (I) after oral dosing of prodrugs; assay type: in vivo, Han Wistar rats; conditions: Wistar rats, doses equal to 287 μg/kg of compound (I)
Method: Plasma was placed on water-ice following collection. Final storage at approximately −70° C.
Mobile phase B: Acetonitrile. […] Flow rate 0.5 mL/min.
The rats had unrestricted access to the diet.
Mobile phase B: Acetonitrile+0.2% formic acid. […] Flow rate 0.3 mL/min.
Dosing and blood sampling for compound (Ic): Han Wistar rats were supplied by Envigo, UK. […] The rats received a standard laboratory diet Teklad 2014C. The rats had unrestricted access to the diet. […] Rats were given 494 μg/kg (Ic).

human 5-HT2B receptor [5] = target: T1, human 5-HT2B receptor (Homo sapiens, UniProt P41595); experiment: 5-HT2B agonist activity assay (IP1 production, HTRF); assay type: cell-based; conditions: for 5-HT2B receptor agonism (in words): example 6 and Table 2
T1 construct: host or cells: CHO
T1 sequence (P41595 whole entry): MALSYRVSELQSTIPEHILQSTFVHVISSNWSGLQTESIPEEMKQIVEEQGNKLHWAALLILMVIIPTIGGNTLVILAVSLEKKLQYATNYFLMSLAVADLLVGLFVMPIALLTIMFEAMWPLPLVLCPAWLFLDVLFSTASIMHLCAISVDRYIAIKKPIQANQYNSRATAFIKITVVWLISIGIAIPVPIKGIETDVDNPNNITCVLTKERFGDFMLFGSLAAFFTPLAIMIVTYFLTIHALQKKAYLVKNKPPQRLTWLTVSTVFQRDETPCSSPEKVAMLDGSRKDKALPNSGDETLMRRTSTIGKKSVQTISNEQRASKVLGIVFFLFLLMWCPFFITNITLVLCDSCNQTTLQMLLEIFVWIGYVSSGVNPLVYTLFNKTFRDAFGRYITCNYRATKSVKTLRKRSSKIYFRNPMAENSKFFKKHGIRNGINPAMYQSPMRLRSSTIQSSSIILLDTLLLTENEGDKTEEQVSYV
Method: Evaluation of the agonist activity of compounds (I), (Ia), (Ib), (Ic) and (Id) at the human 5-HT2B receptor was performed by Eurofins/Cerep (France) measuring the compound effects on inositol monophosphate (IP1) production using the HTRF detection method. Briefly, the human 5-HT2B receptor was expressed in transfected CHO cells. The cells were suspended in a buffer containing 10 mM Hepes/NaOH (pH 7.4), 4.2 mM KCl, 146 mM NaCl, 1 mM CaCl2, 0.5 mM MgCl2, 5.5 mM glucose and 50 mM LiCl, then distributed in microplates at a density of 4100 cells/well and incubated for 30 minutes at 37° C. in the presence of buffer (basal control), test compound or reference agonist. For stimulated control measurement, separate assay wells contained 1 μM 5-HT. Following incubation, the cells were lysed and the fluorescence acceptor (fluorophen D2-labeled IP1) and fluorescence donor (anti-IP1 antibody labeled with europium cryptate) were added. After 60 minutes at room temperature, the fluorescence transfer was measured at lambda (Ex) 337 nm and lambda (Em) 620 and 665 nm using a microplate reader (Rubystar, BMG). The IP1 concentration was determined by dividing the signal measured at 665 nm by that measured at 620 nm (ratio). The results were expressed as a percent of the control response to 1 μM 5-HT. The standard reference agonist was 5-HT, which was tested in each experiment at several concentrations to generate a concentration-response curve from which its EC50 value is calculated as described above for dopamine functional assays.

[6] = man, oral dosing; cited from earlier work
Parkinson's disease = conditions: PD patients, intravenous (IV); cited from earlier work
[7] = In vivo conversion after oral dosing in minipigs
[8] = Conversion in fresh human blood; assay type: in vitro ADME; conditions: fresh blood 37° C., 1 μg/mL, 0-60 minutes
Method: (§2) Conversion of (Id) in human blood (average of 3 donors) and rat blood (average of 45 donors) to (I) was shown in fresh blood at 37° C. spiked with 1 μg/mL of (Id). (I) was measured at 0, 5, 15, 30 and 60 minutes in isolated plasma. Analysis method and Instrumentation as described in Example 7 below in the section “Instrumentation used for analysis of compound (I) from dosing of compounds (Ic) and (Id).”

human D1 receptor = target: T2, human D1 receptor (Homo sapiens, UniProt P21728); experiment: Dopamine D1 receptor agonism, HTRF cAMP assay; assay type: cell-based; conditions: example 5 and table 2 (D1 and D2 assays)
T2 construct: host or cells: HEK-293
T2 sequence (P21728 whole entry): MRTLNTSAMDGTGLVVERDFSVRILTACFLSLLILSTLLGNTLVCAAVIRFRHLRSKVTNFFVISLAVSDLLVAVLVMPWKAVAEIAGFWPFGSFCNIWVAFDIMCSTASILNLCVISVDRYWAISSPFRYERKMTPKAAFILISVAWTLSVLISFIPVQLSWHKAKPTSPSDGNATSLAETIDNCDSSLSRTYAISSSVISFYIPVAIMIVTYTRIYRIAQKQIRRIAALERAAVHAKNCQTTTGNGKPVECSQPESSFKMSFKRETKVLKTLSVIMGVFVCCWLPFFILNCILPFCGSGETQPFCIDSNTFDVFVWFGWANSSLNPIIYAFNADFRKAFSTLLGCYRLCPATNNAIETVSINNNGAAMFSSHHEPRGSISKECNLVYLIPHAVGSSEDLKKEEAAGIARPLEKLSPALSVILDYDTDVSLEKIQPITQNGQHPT
Method: Dopamine D1 receptor agonism was measured using a HTRF cAMP from CisBio using the protocol developed by HD Biosciences (China). Briefly, the assay is a homogeneous time resolved-fluorescence resonance energy transfer (HTRF) assay that measures production of cAMP by cells in a competitive immunoassay between native cAMP produced by cells and cAMP-labeled with XL-665. A cryptate-labeled anti-cAMP antibody visualizes the tracer. The assay was performed in accordance with instructions from manufacturer.
Test compounds were added to wells of microplates (384 format). […] HTRF cAMP was measured by excitation of the donor with 337 nm laser (the “TRF light unit”) and subsequent (delay time 100 microseconds) measurement of cryptate and d2 emission at 615 nm and 665 nm over a time window of 200 microseconds with a 2000 microseconds time window between repeats/100 flashes). HTRF measurements were performed on an Envision microplate reader (PerkinElmer). The HTRF signal was calculated as the emission-ratio at 665 nm over 615 nm. The HTRF ratio readout for test compounds was normalized to 0% and 100% stimulation using control wells with DMSO-solvent or 30 μM dopamine. […]

human 5-HT2B receptor [9] = target: T1, human 5-HT2B receptor; experiment: 5-HT2B radioligand binding assay; conditions: [125I](±)DOI, CHO cell membranes, read-out: 5-HT2B binding affinity (% inhibition of control, specific binding)
Method: Membrane homogenates prepared from CHO cells expressing the human 5HT2B receptor were incubated for 60 minutes at room temperature with 0.2 nM [1251](±)DOI (1-(4-iodo-2, 5-dimethoxyphenyl)propan-2-amine) in the absence or presence of the test compound in a buffer containing 50 mM Tris-HCl (pH 7.4), 5 mM MgCl2, 10 μM pargyline and 0.1% ascorbic acid. Nonspecific binding is determined in the presence of 1 μM (±)DOI. Following incubation, the samples were filtered rapidly under vacuum through glass fiber filters (GF/B, Packard) presoaked with 0.3% polyethyleneimine (PEI) and rinsed several times with ice-cold 50 mM Tris-HCl using a 96-sample cell harvester (Unifilter, Packard). The filters were dried and counted for radioactivity in a scintillation counter (Topcount, Packard) using a scintillation cocktail (Microscint 0, Packard). The results are expressed as a percent inhibition of the control radioligand specific binding. The standard reference compound was (±)DOI, which was tested in each experiment at several concentrations to obtain a competition curve from which its IC50 is calculated.

rat locomotor activity = experiment: Rat locomotor activity (hyperactivity) assay, open field, with PK/PD; assay type: in vivo, male CD rats; conditions: for Relationship between plasma concentration and hyperactivity: (Id) 100 μg/kg p.o. (plasma compound (I)), apomorphine 3 mg/kg s.c. (plasma apomorphine)
Method: Animals were dosed at t=60 minutes after a 60-minutes habituation period in test chambers, and activity was monitored for 350 minutes thereafter.
In total, 206 male CD rats (Charles River, Germany) weighing 200-250 grams (165-190 grams upon arrival) were used in the study. Animals were housed at a standard temperature (22±1° C.) and in a light-controlled environment (lights on from 7 am to […]) with ad libitum access to food and water. The experiment described below was performed in accordance with the standard operating procedures of Charles River Discovery Research Services Finland Ltd. and in accordance with the national Animal Experiment Board of Finland (Eläinkoelautakunta, ELLA) authority on animal testing.
The test device is a square Plexiglass-arena (measuring 40×40×40 cm), in which the movement paths of the rats are recorded by an activity monitor (Med. Associates Inc.). Before the test period is initiated, rats are habituated to their test cage for 60 minutes. Upon completion of habituation, animals were treated with either compound or vehicle and placed back into the open field apparatus. The main test parameter measured is ambulatory distance (recorded in 5-minute segments). Overall time of measurement after receiving initial treatment was 360 minutes. Total follow up period in the study was 420 min, including 60 min of habituation.

[10] = Conversion in fresh rat blood; assay type: in vitro ADME; conditions: fresh blood 37° C., 1 μg/mL, 0-60 minutes
Method: as §2

rat hepatocytes [11] = conditions: WO 2010/097092; cited from earlier work
human hepatocytes [12] = conditions: WO 2010/097092; cited from earlier work
[13] = 1 μg/mL, 37° C., 0.25-60 minutes
[14] = (Id) 10 to 300 μg/kg p.o., apomorphine 3 mg/kg s.c., pramipexole 0.3 mg/kg s.c.

CCCN1CCC[C@@H]2Cc3c(ccc(O)c3O)C[C@H]21 [compound (I), (4aR,10aR)-1-Propyl-1,2,3,4,4a,5,10,10a-octahydro-benzo[g]quinoline-6,7-diol]
Conjugation of compound (I) in rat hepatocytes (rat hepatocytes [1]): conjugated in rat and human hepatocytes to sulfate and glucuronide derivatives
Conjugation of compound (I) in human hepatocytes (human hepatocytes [2]): conjugated in rat and human hepatocytes to sulfate and glucuronide derivatives
Efficacy in animal models relevant for Parkinson's Disease [3]: effective

CCCN1CCC[C@@H]2CC3=C(CCCC3=O)C[C@H]21 [compound (Ia)]
Plasma profile of compound (I) after oral dosing of the prodrug (in words) [4]: early and high peak concentrations of compound (I)
5-HT2B agonist effect @ 30 μM (human 5-HT2B receptor [5]; 30 μM, percent of control response to 1 μM 5-HT): 58%
Efficacy in animal models relevant for Parkinson's Disease [3]: effective

CCCN1CCC[C@@H]2Cc3c(ccc(OC(=O)C(C)(C)C)c3OC(=O)C(C)(C)C)C[C@H]21 [compound (Ic)]
Plasma profile of compound (I) after oral dosing of the prodrug (in words) [4]: extremely low
5-HT2B agonist effect @ 10 μM (human 5-HT2B receptor [5]; 10 μM, percent of control response to 1 μM 5-HT): −5% @ 10 μM

CCCc1cc2c(s1)CN[C@@H]1CCc3cc(OC(C)=O)c(OC(C)=O)cc3[C@@H]21 [adrogolide]
Oral bioavailability [6]: ~4%
Antiparkinson efficacy (Parkinson's disease): comparable to that of L-DOPA

CCCN1CCC[C@@H]2Cc3c(ccc(O)c3O[C@@H]3O[C@H](C(=O)O)[C@@H](O)[C@H](O)[C@H]3O)C[C@H]21 [compound (Id), (2S,3S,4S,5R,6S)-3,4,5-trihydroxy-6-(((4aR,10aR)-7-hydroxy-1-propyl-1,2,3,4,4a,5,10,10a-octahydrobenzo[g]quinolin-6-yl)oxy)tetrahydro-2H-pyran-2-carboxylic acid]
Conversion of (Id) to compound (I) in rat hepatocytes (rat hepatocytes [1]; [13]): time dependent conversion
In vivo conversion of (Id) to compound (I) [7]: observed
Conversion of (Id) to compound (I) in human blood [8]: time dependent conversion
Plasma profile of compound (I) after oral dosing of the prodrug (in words) [4]: slower absorption rate avoiding rapid peak concentrations
In vitro dopaminergic activity (in words) (human D1 receptor): no in vitro dopaminergic activity
Conversion of (Id) to compound (I) in human hepatocytes (human hepatocytes [2]; [13]): time dependent conversion
5-HT2B receptor agonism (in words) (human 5-HT2B receptor [5]): not a 5-HT2B agonists
inhibition at 10 µM (human 5-HT2B receptor [9]): -25%
Relationship between plasma concentration and hyperactivity (rat locomotor activity): correlate with the plasma concentrations of compound (I)
Locomotor activity: start of effect post-administration (rat locomotor activity; [14]): ~2 h
Locomotor activity: end of effect post administration (rat locomotor activity; (Id) 10 to 300 μg/kg p.o., apomorphine 3 mg/kg s.c., recording until 415-minute time point): lasting until the end of recording
Total distance travelled (FIG. 3) (rat locomotor activity; versus vehicle, (Id) p.o., apomorphine 3 mg/kg s.c., pramipexole 0.3 mg/kg s.c.): significantly increased activity
Conversion of (Id) to compound (I) in rat blood [10]: time dependent conversion

CN1CCc2cccc3c2[C@H]1Cc1ccc(O)c(O)c1-3 [apomorphine]
Relationship between plasma concentration and hyperactivity (rat locomotor activity): correlation between plasma concentrations of apomorphine and hyperactive behaviour
Locomotor activity: start of effect post-administration (rat locomotor activity; [14]): immediate

CCCN1CCC[C@@H]2Cc3c(ccc4c3OCO4)C[C@H]21 [compound (Ib)]
Conversion of (Ib) to compound (I) in rat hepatocytes (rat hepatocytes [11]): demonstrated
Conversion of (Ib) to compound (I) in human hepatocytes (human hepatocytes [12]): demonstrated
Plasma profile of compound (I) after oral dosing of the prodrug (in words) [4]: early and high peak concentrations of compound (I)
5-HT2B receptor agonism (in words) (human 5-HT2B receptor [5]): agonist of the 5-HT2B receptor
Efficacy in animal models relevant for Parkinson's Disease [3]: effective
